Reference: patent publication US20230295110A1, “PHD INHIBITOR COMPOUNDS, COMPOSITIONS, AND METHODS OF USE” (Akebia Therapeutics, Inc., priority 2020, published 2023)
Where two headings read alike, the source gives them in different places.

What was measured:
[1] = target: full-length human PHD1 (Homo sapiens (Human), UniProt Q96KS0); experiment: TR-FRET assay for PHD enzymes, PHD1; type: biochemical; details: TR-FRET, 15 nM PHD1, 1 μM 2-OG
Source text: PHD1 was expressed in a baculovirus expression system as the full-length protein (NCBI accession number NP_542770.2) with an N-terminal FLAG tag (molecular weight 44.9 kDa).

[2] = target: full-length human PHD3 (Homo sapiens (Human), UniProt Q9H6Z9); experiment: TR-FRET assay for PHD enzymes, PHD3; type: biochemical
Sequence of full-length human PHD3 (Q9H6Z9 whole entry): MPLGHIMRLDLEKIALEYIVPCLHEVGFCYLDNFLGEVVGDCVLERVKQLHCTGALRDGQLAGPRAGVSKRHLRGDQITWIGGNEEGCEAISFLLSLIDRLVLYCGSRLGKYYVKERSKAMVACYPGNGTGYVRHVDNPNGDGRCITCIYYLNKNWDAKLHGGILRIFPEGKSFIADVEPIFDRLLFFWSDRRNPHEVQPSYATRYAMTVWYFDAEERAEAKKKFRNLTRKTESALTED
Source text: Recombinant human PHD3 protein (molecular weight 31.1 kDa) was purchased from Active Motif (Carlsbad, CA, USA). It was expressed in E. coli as the full-length protein (NCBI accession number NP_071356.1) with an N-terminal 6-His tag (catalog #81033, Lot #24417001).

[3] = target: full-length human PHD2 (Homo sapiens (Human), UniProt Q9GZT9); experiment: TR-FRET assay for PHD enzymes, PHD2
Sequence of full-length human PHD2 (Q9GZT9 whole entry): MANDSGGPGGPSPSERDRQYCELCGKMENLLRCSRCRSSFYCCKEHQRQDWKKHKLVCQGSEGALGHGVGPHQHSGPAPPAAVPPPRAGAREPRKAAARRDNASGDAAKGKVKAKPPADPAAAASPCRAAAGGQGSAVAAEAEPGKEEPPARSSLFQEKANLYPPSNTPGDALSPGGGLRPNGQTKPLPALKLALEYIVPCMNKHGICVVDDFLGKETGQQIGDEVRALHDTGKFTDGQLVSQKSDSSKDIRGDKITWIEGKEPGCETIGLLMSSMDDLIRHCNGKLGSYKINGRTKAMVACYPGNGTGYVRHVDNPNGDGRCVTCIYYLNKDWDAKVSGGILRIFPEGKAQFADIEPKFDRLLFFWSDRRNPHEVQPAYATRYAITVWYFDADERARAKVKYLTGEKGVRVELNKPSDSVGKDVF
Source text: Time-resolved fluorescence resonance energy transfer (TR-FRET) assay was utilized to determine the enzymatic half maximal inhibitory concentration (IC50) value of PHD inhibitors against the full-length human prolyl-4-hydroxylase domain (PHD) enzymes, PHD1, PHD2, and PHD3. The TR-FRET assay was developed based on the specific binding of hydroxylated HIF-1α peptide with the complex formed by VHL, EloB and EloC (VBC), to generate a fluorescent signal. Terbium (Tb)-Donor (monoclonal antibody anti-6His-Tb-cryptate Gold) and D2-acceptor (streptavidin [SA]-D2) of TR-FRET are linked to the VBC complex and to HIF-1α peptide, respectively. The VBC complex binds specifically to the HIF-1α peptide when it is hydroxylated, allowing energy transfer from TR-FRET donor to acceptor (FIG. 1). […] The plates were incubated for 30 minutes at room temperature without rotation. […] TR-FRET assays were performed in triplicate at each concentration of compound and the assays were repeated independently three times.

[4] = read-out: PHD2 IC50, TR-FRET, 5 nM PHD2, 1 μM 2-OG

Sequence of full-length human PHD1 (Q96KS0 whole entry): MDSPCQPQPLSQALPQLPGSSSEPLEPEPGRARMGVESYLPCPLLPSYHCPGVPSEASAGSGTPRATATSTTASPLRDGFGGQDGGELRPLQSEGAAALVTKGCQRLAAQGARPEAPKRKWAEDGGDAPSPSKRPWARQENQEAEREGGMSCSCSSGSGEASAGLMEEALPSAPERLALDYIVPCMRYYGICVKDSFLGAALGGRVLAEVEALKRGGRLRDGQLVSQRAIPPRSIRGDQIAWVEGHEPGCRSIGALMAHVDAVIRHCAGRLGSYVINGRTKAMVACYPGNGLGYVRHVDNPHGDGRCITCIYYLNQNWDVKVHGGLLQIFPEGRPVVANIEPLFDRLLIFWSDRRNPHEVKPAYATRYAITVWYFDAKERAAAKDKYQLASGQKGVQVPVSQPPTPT

| SMILES | IC50 [1] | IC50 ([2]; TR-FRET, 35 nM PHD3, 1 μM 2-OG) | IC50 [3, 4] | IC50 [2] | IC50 [3] |
| --- | --- | --- | --- | --- | --- |
| Cc1c(-c2cn(-c3ccc(F)cc3)nn2)cnc(C(=O)NCC(=O)O)c1O [Compound 41, (5-(1-(4-fluorophenyl)-1H-1,2,3-triazol-4-yl)-3-hydroxy-4-methylpicolinoyl)glycine] | < 100 nM | < 100 nM | < 100 nM |  |  |
| Cc1c(-c2cnc(-c3ccccc3)o2)cnc(C(=O)NCC(=O)O)c1O [Compound 26, (3-hydroxy-4-methyl-5-(2-phenyloxazol-5-yl)picolinoyl)glycine] | < 100 nM | < 100 nM | < 100 nM |  |  |
| Cc1c(-c2cnn(-c3ccccn3)c2)cnc(C(=O)NCC(=O)O)c1O [Compound 18, (3-Hydroxy-4-methyl-5-(1-(pyridin-2-yl)-1H-pyrazol-4-yl)picolinoyl)glycine] | < 100 nM | < 100 nM | < 100 nM |  |  |
| Cc1ccc(-c2cnc(C(=O)NCC(=O)O)c(O)c2C)cn1 [Compound 27, (5-hydroxy-4,6′-dimethyl-[3,3′-bipyridine]-6-carbonyl)glycine] | < 100 nM |  | < 100 nM | 100 to 1000 nM |  |
| Cc1c(-c2cnn(C(C)C)c2)cnc(C(=O)NCC(=O)O)c1O [Compound 20, (3-Hydroxy-5-(1-isopropyl-1H-pyrazol-4-yl)-4-methylpicolinoyl)glycine] | < 100 nM | < 100 nM | < 100 nM |  |  |
| Cc1c(-c2cccnc2)cnc(C(=O)NCC(=O)O)c1O [Compound 10, (5-Hydroxy-4-methyl-[3,3′-bipyridine]-6-carbonyl)glycine] | < 100 nM | < 100 nM | < 100 nM |  |  |
| Cc1c(-c2ccc(C(F)(F)F)nc2)cnc(C(=O)NCC(=O)O)c1O [Compound 9, (5-Hydroxy-4-methyl-6′-(trifluoromethyl)-[3,3′-bipyridine]-6-carbonyl)glycine] | < 100 nM | < 100 nM | < 100 nM |  |  |
| Cc1c(-c2cnn(C3CCOCC3)c2)cnc(C(=O)NCC(=O)O)c1O [Compound 21, (3-Hydroxy-4-methyl-5-(1-(tetrahydro-2H-pyran-4-yl)-1H-pyrazol-4-yl)picolinoyl)glycine] | < 100 nM | < 100 nM | < 100 nM |  |  |
| Cc1c(-c2cnn(-c3ccc(F)cc3)c2)cnc(C(=O)NCC(=O)O)c1O [Compound 19, (5-(1-(4-Fluorophenyl)-1H-pyrazol-4-yl)-3-hydroxy-4-methylpicolinoyl)glycine] | < 100 nM | < 100 nM | < 100 nM |  |  |
| Cc1nc(C(=O)NCC(=O)O)c(O)c(C)c1-c1cnn(-c2ccccc2)c1 [Compound 25, (3-Hydroxy-4,6-dimethyl-5-(1-phenyl-1H-pyrazol-4-yl)picolinoyl)glycine] | < 100 nM | < 100 nM | < 100 nM |  |  |
| Cc1c(-c2ccc3ccccc3c2)cnc(C(=O)NCC(=O)O)c1O [Compound 33, (3-hydroxy-4-methyl-5-(naphthalen-2-yl)picolinoyl)glycine] | < 100 nM | < 100 nM | < 100 nM |  |  |
| Cc1c(-c2cnc(-c3ccccc3)s2)cnc(C(=O)NCC(=O)O)c1O [Compound 7, (3-Hydroxy-4-methyl-5-(2-phenylthiazol-5-yl)picolinoyl)glycine] | < 100 nM | < 100 nM | < 100 nM |  |  |
| Cc1nn(-c2ccc(F)cc2)cc1-c1cnc(C(=O)NCC(=O)O)c(O)c1C [Compound 38, (5-(1-(4-fluorophenyl)-3-methyl-1H-pyrazol-4-yl)-3-hydroxy-4-methylpicolinoyl)glycine] | < 100 nM | < 100 nM | < 100 nM |  |  |
| Cc1c(-c2ccc3cnccc3c2)cnc(C(=O)NCC(=O)O)c1O [Compound 3, (3-Hydroxy-5-(isoquinolin-6-yl)-4-methylpicolinoyl)glycine] | < 100 nM | < 100 nM | < 100 nM |  |  |
| Cc1nn(-c2cccc(F)c2)cc1-c1cnc(C(=O)NCC(=O)O)c(O)c1C [Compound 39, (5-(1-(3-fluorophenyl)-3-methyl-1H-pyrazol-4-yl)-3-hydroxy-4-methylpicolinoyl)glycine] | < 100 nM | < 100 nM | < 100 nM |  |  |
| Cc1c(-c2cc(Cl)cc(Cl)c2)cnc(C(=O)NCC(=O)O)c1O [Compound 36, (5-(3,5-dichlorophenyl)-3-hydroxy-4-methylpicolinoyl)glycine] | < 100 nM | < 100 nM | < 100 nM |  |  |
| Cc1c(-c2cccc(Cl)c2)cnc(C(=O)NCC(=O)O)c1O [Compound 32, (5-(3-chlorophenyl)-3-hydroxy-4-methylpicolinoyl)glycine] | < 100 nM | < 100 nM | < 100 nM |  |  |
| Cc1c(-c2cn(-c3ccccc3)nn2)cnc(C(=O)NCC(=O)O)c1O [Compound 44, (3-hydroxy-4-methyl-5-(1-phenyl-1H-1,2,3-triazol-4-yl)picolinoyl)glycine] | < 100 nM | < 100 nM | < 100 nM |  |  |
| Cc1c(C#CCOc2ccccc2)cnc(C(=O)NCC(=O)O)c1O [Compound 53] | < 100 nM |  | < 100 nM |  |  |
| COc1cccc(-c2cnc(C(=O)NCC(=O)O)c(O)c2C)c1 [Compound 2, (3-Hydroxy-5-(3-methoxyphenyl)-4-methylpicolinoyl)glycine] | < 100 nM | < 100 nM | < 100 nM |  |  |
| Cc1c(-c2cn(CCc3ccc(Cl)cc3)nn2)cnc(C(=O)NCC(=O)O)c1O [Compound 42, (5-(1-(4-chlorophenethyl)-1H-1,2,3-triazol-4-yl)-3-hydroxy-4-methylpicolinoyl)glycine] | < 100 nM | < 100 nM | < 100 nM |  |  |
| Cc1c(-c2cn(CCCc3ccc(Cl)cc3)nn2)cnc(C(=O)NCC(=O)O)c1O [Compound 43, (5-(1-(3-(4-chlorophenyl)propyl)-1H-1,2,3-triazol-4-yl)-3-hydroxy-4-methylpicolinoyl)glycine] | < 100 nM | < 100 nM | < 100 nM |  |  |
| Cc1c(Sc2ccccc2)cnc(C(=O)NCC(=O)O)c1O [Compound 59] | 1000 to 10000 nM |  |  |  | 100 to 1000 nM |
| Cc1c(-c2cnc3ccccc3c2)cnc(C(=O)NCC(=O)O)c1O [Compound 28] | < 100 nM | < 100 nM | < 100 nM |  |  |
| Cc1c(-c2nnn(-c3ccccc3)n2)cnc(C(=O)NCC(=O)O)c1O [Compound 65] | < 100 nM |  | < 100 nM |  |  |
| Cc1c(-c2cnn(CC(C)C)c2)cnc(C(=O)NCC(=O)O)c1O [Compound 22, (3-Hydroxy-5-(1-isobutyl-1H-pyrazol-4-yl)-4-methylpicolinoyl)glycine] | < 100 nM | < 100 nM | < 100 nM |  |  |
| Cc1ncccc1-c1cnc(C(=O)NCC(=O)O)c(O)c1C [Compound 29] | 100 to 1000 nM |  |  |  | 100 to 1000 nM |
| Cc1ccc2cc(-c3cnc(C(=O)NCC(=O)O)c(O)c3C)ccc2n1 [Compound 5, (3-Hydroxy-4-methyl-5-(2-methylquinolin-6-yl)picolinoyl)glycine] | < 100 nM | < 100 nM | < 100 nM |  |  |
| Cc1nc(-c2ccccc2)sc1-c1cnc(C(=O)NCC(=O)O)c(O)c1C [Compound 37, (3-hydroxy-4-methyl-5-(4-methyl-2-phenylthiazol-5-yl)picolinoyl)glycine] | < 100 nM | < 100 nM | < 100 nM |  |  |
